Data from US8470964B2, “Peptides derived from NCAM (FGLs)” (Enkam Pharmaceuticals A/S, priority 2007, dated 2013).
“Also recorded” adds a separate entry of the source. Where no end group is shown, it is not given here.

Assays:
[1] = tested on: primary cerebellar granule rat cells (CGC); assay: Neurite outgrowth of cerebellar granule neurons; format: cell-based; conditions: CGC from 7-day old Wistar rats, 24 hrs; bell-shaped dose response
Method: FIG. 2. Effects of FGLs on neurite outgrowth of early postnatal rat cerebellar neurons. CGCs were prepared from 7-day old Wistar rats and plated on uncoated eight-well Lab-Tek® chamber The peptide was added to the medium immediately after plating, and cells were maintained at 37° C., 5% CO2 for 24 hrs. CGC cultures were fixed in 4% and then immunostained against rat GAP-43. Neurite outgrowth was determined by image analysis of 200±20 neurons in each individual experiment. The length of neuronal processes per cell was estimated stereologically. The results are given as mean values±SEM from at least three independent experiments and illustrated as percentage of control values. *p<0.05 when compared with control by paired t-test.
This study investigated the effect of FGLs on neurite outgrowth of dissociated primary cerebellar granule rat cells (CGC) cultured in vitro.
Efficacy is found over a range of concentrations corresponding to that of target (FGFR) activation and follows the same bell-shaped dose-response.

adult male Wistar rats = assay: Morris Water Maze spatial learning; format: in vivo, rat; conditions: 2.5 mg/kg s.c. as a single dose 5, 3 and 1 day prior to training; versus vehicle
Method: FIG. 6. Effects of FGLs on spatial learning in the Morris Water Maze. Rats received FGLs or vehicle subcutaneously as a single dose of 2.5 mg/kg 5, 3 and 1 day prior to first test (trials 1-4 in above graph). The second test (trials 5-8 in above graph) took place the day after the first test. The results were analysed using analysis of variance (ANOVA) and Student's t-test. Data are mean escape latency(s) (±SEM) to find the platform over the 2 training days (t1-t4). *p<0.05, when compared with the Vehicle/Control group at the same time point.
The aim of this study was to investigate whether the subcutaneous administration of FGLs modulates spatial learning in adult male Wistar rats, using the Morris Water Maze as test system.
In the MWM test, rats are evaluated in the task to learn and remember the location of an escape platform hidden just under the water surface. In this study the test set-up was optimised for measuring learning. Rats received FGLs 2.5 mg/kg or vehicle subcutaneously as a single dose 5, 3 and 1 day prior the start of the training in the MWM.

[2] = tested on: rat model of (25-35) β-amyloid induced neurotoxicity; assay: (25-35) β-amyloid induced neurotoxicity, subcutaneous administration: SRT and neuropathology; format: in vivo
Method: FIG. 8. The effect of FGLs (administered subcutaneously at the stated doses), or vehicle on the development of cognitive impairment (deficit in short-term social memory) and neurodegeneration after (25-35) β-amyloid (A-β) fragment neurointoxication. Comparisons of RR values to a hypothetical value 0.50 were carried using one-sample t-test. Intergroup comparisons between A-β groups were carried out using One Way ANOVA and Newman-Keuls post-hoc test and comparison between A-β vehicle and sham-operated animals by un-paired t-test.
In the rat model of (25-35) β-amyloid induced neurotoxicity (Delobette et al., 1997; Maurice et al., 1996), (25-35) aggregated β-amyloid neurotoxin is injected intracerebroventricularly leading to progressive deterioration of short-term memory (clearly detectable using the Social Recognition Test (SRT) with a 30-minute inter-trial interval (ITI) (Kogan et al., 2000), and to neurodegeneration in cortex and hippocampus characterized by increases in amyloid burden, tau phosphorylation and micro- and macro-glia activation, as well as neuronal loss (Klementiev et al., 2007).
In this study, 3.2, 0.8, 0.2 mg/kg of FGLs or sterile PBS were administered daily by subcutaneous injection. Administration was started 7 days after i.c.v. administration of an aggregated form of the (25-35) β-amyloid peptide fragment and continued until day 28 when the rats were terminated.
The social memory performance was estimated, using the SRT 21-22 days after i.c.v. administration of the β-amyloid fragment.
A significant neuroprotective effect of FGLs was detected in both areas. The minimum effective dose of FGLs for neuroprotection was 0.8 mg/kg, in hippocampus and 0.2 mg/kg in cingulate cortex.

[3] = tested on: scopolamine induced social amnesia model in adult rats; assay: Scopolamine induced social amnesia model (SRT); format: in vivo, rat; conditions: 8 mg/kg s.c. twice, 19 hours interval
Method: FIG. 7. Effects of subcutaneous administration of FGLL FGLs, and VEB1 (2 administrations with a 19 hours interval, at 8 mg/kg) on the scopolamine induced social amnesia as evaluated in the Social Recognition Test (SRT). The rats were tested with the initial trial of SRT performed 5 h after the last administration of peptide/vehicle and 30 minutes after scopolamine (0.01 mg/kg s.c.) administration. The juvenile rat was presented twice with an inter-trial interval of 15 minutes.
A—Recognition ratios (RR) of rats treated with scopolamine and vehicle (Veh) or scopolamine and one of the three peptides as detailed above. Results are shown as Mean and SEM of recognition ratio (RR). […] Comparisons of RR values to a hypothetical value 0.50 were carried out using one-sample t-test. In each experimental group data were obtained from 10 rats.
B—Cumulative investigation time (T1, in seconds) during the first trial of the SRT of rats treated with scopolamine and vehicle (Veh) or scopolamine and one of the three peptides as detailed above. Results are shown as Mean and SEM of T1. Comparison between groups were carried out by ANOVA followed by Dunnett Multiple Comparison Test. In each experimental group data were obtained from 10 rats.
FGLs was tested for efficacy in the scopolamine induced social amnesia model in adult rats (Van Kampen et al., 2004). […]

[4] = daily s.c. from day 7, neuropathology at day 28

Q: What does the source list for “FGLs: two identical 11 amino acid peptides (VAENQQGKSKA), forming a dimer through a linker molecule (iminodiacetic acid); peptide amide (VAENQQGKSKA-NH2; not fully specified; also: dimer of two identical peptides through iminodiacetic acid linker, attachment site not given here)”?
A: concentration range with neurite outgrowth promoting activity [1]: 5 to 25 µg/mL; spatial learning in Morris Water Maze (escape latency) (adult male Wistar rats): learned significantly faster than vehicle treated ones; short-term memory deficit in SRT compared to placebo-treated rats ([2]; 0.8 mg/kg s.c. daily, SRT 21-22 days after i.c.v. β-amyloid): statistically significant reduction in the short-term memory deficit; PRESENCE OF A SIGNIFICANT PEPTIDE EFFECT: SRT short-term social recognition memory ([2]; daily s.c. 0.2, 0.8, 3.2 mg/kg from day 7, SRT 21-22 days after i.c.v. β-amyloid): YES (p < 0.01)^1; EFFECTIVE DOSE OR DOSE RANGE: SRT short-term social recognition memory ([2]; daily s.c. from day 7, SRT 21-22 days after i.c.v. β-amyloid): 0.8 mg/kg; EFFECTIVE DOSE OR DOSE RANGE: Density Intact neurons Cingulate cortex [2, 4]: 0.8 mg/kg; EFFECTIVE DOSE OR DOSE RANGE: Density Intact neurons Hippocampus (CA3) [2, 4]: 0.8 mg/kg; EFFECTIVE DOSE OR DOSE RANGE: Density damaged neurons Cingulate cortex [2, 4]: 0.2 mg/kg; EFFECTIVE DOSE OR DOSE RANGE: Density damaged neurons Hippocampus (CA3) [2, 4]: 0.8 mg/kg; PRESENCE OF A SIGNIFICANT PEPTIDE EFFECT: Density Intact neurons Cingulate cortex [2, 4]: Yes (p < 0.05)^3; PRESENCE OF A SIGNIFICANT PEPTIDE EFFECT: Density Intact neurons Hippocampus (CA3) [2, 4]: YES (P < 0.05); PRESENCE OF A SIGNIFICANT PEPTIDE EFFECT: Density damaged neurons Cingulate cortex [2, 4]: YES (p < 0.01,; PRESENCE OF A SIGNIFICANT PEPTIDE EFFECT: Density damaged neurons Hippocampus (CA3) [2, 4]: YES (p < 0.05)^3; minimum effective dose for neuroprotection in cingulate cortex ([2]; daily s.c., day 28): 0.2 mg/kg; minimum effective dose for neuroprotection in hippocampus ([2]; daily s.c., day 28): 0.8 mg/kg; β-amyloid burden in the cingulate cortex ([2]; daily s.c., day 28, large variability among animals): Neither the lesion, nor the peptide had significant effects; also recorded: did not reach significance; minimum effective dose for neuroprotection ([2]; subcutaneous administration): 0.2 mg/kg; minimum effective dose, social recognition memory deficit ([2]; subcutaneous administration): 0.8 mg/kg; cumulative investigation time at the first encounter (T1) versus scopolamine and vehicle ([3]; scopolamine 0.01 mg/kg s.c.): significantly longer T1 than rats treated with vehicle; also recorded: significant difference in the cumulative investigation time at the first encounter; recognition ratio (RR) versus theoretical value 0.5 in scopolamine treated rats ([3]; test 5 h after last dose, 30 minutes after scopolamine 0.01 mg/kg s.c.): Significant effects against scopolamine induced social amnesia; also recorded: RR significantly different from the theoretical value of 0.5
